How the values were obtained:
Test in all cases: biolayer interferometry
Type in all cases: binding
[1] = target: Snail (Homo sapiens, UniProt O95863, R174A)
[2] = target: T1, Slug (Snail2) (Homo sapiens, UniProt O43623)
T1 sequence (O43623 1-268): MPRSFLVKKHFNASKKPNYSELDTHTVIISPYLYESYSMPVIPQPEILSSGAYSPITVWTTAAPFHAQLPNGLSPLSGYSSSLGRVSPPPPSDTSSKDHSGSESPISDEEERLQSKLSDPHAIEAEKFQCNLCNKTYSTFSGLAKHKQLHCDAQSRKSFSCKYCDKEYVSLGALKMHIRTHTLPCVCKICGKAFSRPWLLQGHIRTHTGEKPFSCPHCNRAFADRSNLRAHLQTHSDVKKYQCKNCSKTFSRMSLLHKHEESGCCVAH

[3] = target: Snail (Homo sapiens, UniProt O95863)
Chain of Snail (Homo sapiens, UniProt O95863) (O95863 whole entry): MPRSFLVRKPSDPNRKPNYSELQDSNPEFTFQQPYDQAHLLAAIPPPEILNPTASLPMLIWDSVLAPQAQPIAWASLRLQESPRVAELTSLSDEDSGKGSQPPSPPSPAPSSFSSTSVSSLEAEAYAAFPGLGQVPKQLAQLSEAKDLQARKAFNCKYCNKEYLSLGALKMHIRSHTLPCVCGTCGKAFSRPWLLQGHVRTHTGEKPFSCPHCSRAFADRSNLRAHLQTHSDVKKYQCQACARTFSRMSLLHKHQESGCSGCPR

Chain of Snail (Homo sapiens, UniProt O95863, R174A) (O95863 whole entry R174A): as the sequence (O95863 whole entry) above, with R174A counted along it

Kd [1]: 3000 nM | Kd [2]: 600 nM | Kd [3]: 180 nM
Structure (SMILES): Cc1cc(Nc2nc(SCc3ccc(C(=O)Nc4ccc(F)cc4N)cc3)nn3cccc23)n[nH]1 [CYD19]
